Experimental data as given in ChEMBL document CHEMBL1129456, “Synthesis and evaluation of two positron-labeled nitric oxide synthase inhibitors, S-[11C]methylisothiourea and S-(2-[18F]fluoroethyl)isothiourea, as potential positron emission tomography tracers” (J Med Chem, 1996).

Assays:
[1] = Partition coefficient measured by octanol/water extraction at pH 6.8; assay type: physicochemical
Nitric oxide synthase 3 = molecular target: T1, Nitric oxide synthase 3 (Homo sapiens, UniProt P29474); experiment: The compound was evaluated for the inhibitory potencies using human Endothelial nitric oxide synthase
T1 sequence (P29474 whole entry): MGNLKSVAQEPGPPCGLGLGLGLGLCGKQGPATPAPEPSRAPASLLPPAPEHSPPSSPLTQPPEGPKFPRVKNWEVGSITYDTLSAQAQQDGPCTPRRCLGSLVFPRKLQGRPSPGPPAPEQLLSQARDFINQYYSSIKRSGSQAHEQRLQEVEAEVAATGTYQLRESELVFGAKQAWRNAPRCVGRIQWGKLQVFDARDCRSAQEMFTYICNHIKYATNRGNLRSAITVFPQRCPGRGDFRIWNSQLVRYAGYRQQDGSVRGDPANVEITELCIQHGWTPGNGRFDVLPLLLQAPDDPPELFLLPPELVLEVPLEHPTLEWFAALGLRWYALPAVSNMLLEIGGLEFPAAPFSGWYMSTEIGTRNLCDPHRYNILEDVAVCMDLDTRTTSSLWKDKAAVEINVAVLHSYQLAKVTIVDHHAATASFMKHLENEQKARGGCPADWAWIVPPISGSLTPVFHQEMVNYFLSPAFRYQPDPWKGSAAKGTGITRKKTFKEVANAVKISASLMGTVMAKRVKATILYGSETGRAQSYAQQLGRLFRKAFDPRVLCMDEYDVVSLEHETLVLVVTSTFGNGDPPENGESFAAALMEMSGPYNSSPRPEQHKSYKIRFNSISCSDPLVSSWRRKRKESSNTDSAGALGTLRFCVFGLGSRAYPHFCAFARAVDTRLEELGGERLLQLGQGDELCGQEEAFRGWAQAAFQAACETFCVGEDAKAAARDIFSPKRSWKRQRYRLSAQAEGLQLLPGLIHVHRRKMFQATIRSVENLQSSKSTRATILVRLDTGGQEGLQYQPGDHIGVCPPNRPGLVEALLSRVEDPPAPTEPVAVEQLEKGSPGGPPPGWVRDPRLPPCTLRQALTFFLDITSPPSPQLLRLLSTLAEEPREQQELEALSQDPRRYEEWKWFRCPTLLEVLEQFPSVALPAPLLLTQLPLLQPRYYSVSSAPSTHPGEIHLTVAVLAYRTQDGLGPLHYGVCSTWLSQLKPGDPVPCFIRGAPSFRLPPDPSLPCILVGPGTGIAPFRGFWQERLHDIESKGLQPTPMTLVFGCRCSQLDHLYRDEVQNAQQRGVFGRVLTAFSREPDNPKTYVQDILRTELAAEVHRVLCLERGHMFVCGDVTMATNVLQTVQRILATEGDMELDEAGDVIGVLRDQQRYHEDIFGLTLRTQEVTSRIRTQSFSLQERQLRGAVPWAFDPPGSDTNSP

[2] = molecular target: Nitric oxide synthase, inducible (Homo sapiens, UniProt P35228); experiment: The compound was evaluated for the inhibitory potencies using human Inducible nitric oxide synthase (hiNOS)
Nitric oxide synthase, inducible, sequence (P35228 whole entry): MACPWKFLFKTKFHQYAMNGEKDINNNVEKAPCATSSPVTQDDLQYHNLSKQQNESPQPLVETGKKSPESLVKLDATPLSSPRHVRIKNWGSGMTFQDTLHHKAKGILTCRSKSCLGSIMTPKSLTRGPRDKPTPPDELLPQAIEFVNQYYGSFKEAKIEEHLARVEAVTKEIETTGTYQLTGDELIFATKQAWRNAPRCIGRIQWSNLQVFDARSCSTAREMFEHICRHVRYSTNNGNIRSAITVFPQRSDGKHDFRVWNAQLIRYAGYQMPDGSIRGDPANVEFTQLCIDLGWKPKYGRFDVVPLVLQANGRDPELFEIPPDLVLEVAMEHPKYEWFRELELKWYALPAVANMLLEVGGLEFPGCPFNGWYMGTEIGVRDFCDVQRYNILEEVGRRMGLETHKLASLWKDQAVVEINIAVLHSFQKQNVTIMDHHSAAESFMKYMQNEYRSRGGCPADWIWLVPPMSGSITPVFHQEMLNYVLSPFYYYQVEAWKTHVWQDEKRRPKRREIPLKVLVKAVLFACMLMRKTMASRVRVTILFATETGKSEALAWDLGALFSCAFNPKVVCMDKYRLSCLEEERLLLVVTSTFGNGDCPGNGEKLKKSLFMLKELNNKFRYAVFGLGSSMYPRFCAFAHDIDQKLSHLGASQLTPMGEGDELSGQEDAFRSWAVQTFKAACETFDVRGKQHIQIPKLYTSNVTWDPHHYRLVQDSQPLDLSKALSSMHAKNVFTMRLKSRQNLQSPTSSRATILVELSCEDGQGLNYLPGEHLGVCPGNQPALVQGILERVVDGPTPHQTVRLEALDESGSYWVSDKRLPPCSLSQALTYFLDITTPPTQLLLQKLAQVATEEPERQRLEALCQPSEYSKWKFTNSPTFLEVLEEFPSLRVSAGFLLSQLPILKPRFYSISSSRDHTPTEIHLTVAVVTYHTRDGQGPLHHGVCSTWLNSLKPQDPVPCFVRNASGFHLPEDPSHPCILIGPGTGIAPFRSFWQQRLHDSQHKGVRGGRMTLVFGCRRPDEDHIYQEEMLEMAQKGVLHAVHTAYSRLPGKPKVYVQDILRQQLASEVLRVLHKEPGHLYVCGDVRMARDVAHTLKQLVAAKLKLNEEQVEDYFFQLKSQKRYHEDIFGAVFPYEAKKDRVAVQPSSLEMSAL

| SMILES | logD [1] | IC50 (Nitric oxide synthase 3) [µM] | IC50 [2] [µM] |
| --- | --- | --- | --- |
| [11CH3]SC(=N)N | -0.04 | – | – |
| CSC(=N)N | – | 7 | 3 |
